From patent publication US20090023773A1, “COMPOSITIONS AND METHODS FOR MODULATING GATED ION CHANNELS” (PainCeptor Pharma Corporation, priority 2007, published 2009)

How the values were obtained:
[1] = molecular target: T1, hASIC2a/3 steady state (window) current (Homo sapiens, UniProt Q16515+Q9UHC3); settings: supramaximal concentration; Babinski et al. (2000); cited from earlier work
T1 construct: expressed in transfected cells; host or cells: Xenopus laevis oocytes, cRNA microinjection, 1:1 mass ratio
T1 sequence (Q16515 1-512): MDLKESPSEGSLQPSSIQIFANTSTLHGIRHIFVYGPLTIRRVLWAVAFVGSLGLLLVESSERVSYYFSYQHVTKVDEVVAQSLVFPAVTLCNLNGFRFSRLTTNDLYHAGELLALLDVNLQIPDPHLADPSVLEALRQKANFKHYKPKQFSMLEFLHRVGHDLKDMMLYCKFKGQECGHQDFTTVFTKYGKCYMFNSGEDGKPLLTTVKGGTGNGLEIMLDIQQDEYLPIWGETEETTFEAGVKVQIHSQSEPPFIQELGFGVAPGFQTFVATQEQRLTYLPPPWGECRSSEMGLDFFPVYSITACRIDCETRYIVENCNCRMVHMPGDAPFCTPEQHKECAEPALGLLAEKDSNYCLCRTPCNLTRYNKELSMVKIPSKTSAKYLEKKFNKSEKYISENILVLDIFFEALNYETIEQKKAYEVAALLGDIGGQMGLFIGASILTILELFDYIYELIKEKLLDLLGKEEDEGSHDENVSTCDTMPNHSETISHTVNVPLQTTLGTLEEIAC
T1 sequence (Q9UHC3 1-531): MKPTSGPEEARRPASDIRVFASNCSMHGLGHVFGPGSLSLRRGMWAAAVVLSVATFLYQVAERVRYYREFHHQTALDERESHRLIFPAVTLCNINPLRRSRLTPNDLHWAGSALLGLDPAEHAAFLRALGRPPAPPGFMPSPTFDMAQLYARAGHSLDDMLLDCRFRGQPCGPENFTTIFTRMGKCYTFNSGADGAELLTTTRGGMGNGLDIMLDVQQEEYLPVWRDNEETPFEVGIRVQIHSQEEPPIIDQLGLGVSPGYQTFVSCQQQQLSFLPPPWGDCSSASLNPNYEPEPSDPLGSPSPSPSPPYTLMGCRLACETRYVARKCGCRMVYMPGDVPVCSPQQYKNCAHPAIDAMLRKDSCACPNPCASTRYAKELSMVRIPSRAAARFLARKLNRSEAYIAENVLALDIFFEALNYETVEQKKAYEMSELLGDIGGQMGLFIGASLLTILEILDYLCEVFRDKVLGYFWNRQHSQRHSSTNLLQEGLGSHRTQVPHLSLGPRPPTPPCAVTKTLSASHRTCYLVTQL

[2] = molecular target: T1, hASIC2a/3 steady state (window) current; experiment: ASIC2a/3 assay, automated two-electrode voltage clamp in oocytes microinjected with hASIC2a and hASIC3 (Example 2); type: cell-based; settings: 50 μM, perfusion at pH 6.5; FIG. 8
Protocol: The ASIC2a/3 assay involves methods and procedures commonly in use and have been extensively described in the literature.
Briefly, a mature female frog is placed on its back after anesthesia, 20 min in 0.1% (w/v) Tricaine (Sigma), and incision is made on the lower abdomen through the skin, muscle and into the peritoneum. Lobes of ovaries are pulled out with forceps, cut and placed in a solution of Ca^2+-free Barth's with 1% (w/v) collagenase Type I (Sigma) added, for 90 minutes. The dissociated eggs are then washed with complete Barth's, supplementd with […] Gentamycin.
Plasmids containing cDNA for ASIC2a+ASIC3 are linearized and used for cRNA synthesis. The synthesis is done according to the protocol insert of the synthesis kit (e.g. Message Machine, Ambion). The final resuspension of the cRNA is made to provide a concentration of 1 μg/μL. The cDNA's for hASIC2a and hASIC3 are mixed with a 1:1 mass ratio and injected at […] per oocyte. Micro-injected oocytes start expressing hASIC2a3 specific current after 24 h.
The oocytes micro-injected with hASIC2a and hASIC3 cRNA's are placed in the recording chambers of the automated rig and then impaled with the voltage and current micro-electrodes. […] The voltage and current for each oocyte is recorded in one pass during both applications for later analysis. […]

[3] = system: chemically-induced spontaneous pain evoked by intraplantar injection of formalin; experiment: Formalin test, model of acute tonic pain (Example 7); type: in vivo; settings: rat; SC, 10 and 300 μmol/kg, 60 min prior to formalin; FIG. 9A
Protocol: Male Sprague-Dawley rats are housed together in groups of three animals under standard conditions with unrestricted access to food and water. All experiments are conducted according to the ethical guidelines for investigations of experimental pain in conscious animals (Zimmerman, 1983).
Assessment of formalin-induced flinching behavior in normal, uninjured rats (body weight 200-300 g) is made after formalin (2.5% in saline, 50-100 μl, s.c.) is injected into the plantar surface of the hindpaw using a 27 G needle. Rats are pretreated with test compounds either administered intravenously (IV), by subcutaneous injection (SC) or by orally (PO).
Nociceptive behavior is determined manually every 5 min by measuring the amount of time spent in each of four behavioral categories: 0, treatment of the injected hindpaw is indistinguishable from that of the contralateral paw; 1, the injected paw has little or no weight placed on it; 2, the injected paw is elevated and is not in contact with any surface; 3, the injected paw is licked, bitten, or shaken. A weighted nociceptive score, ranging from 0 to 3 is calculated by multiplying the time spent in each category by the category weight, summing these products, and dividing by the total time for each 5 min block of time. (Coderre et al., Pain 1993; 54: 43). On the basis of the resulting response patterns, […] of nociceptive behavior are identified and scored: first phase (P1; 0-5 min), interphase (Int; 6-15 min), second phase (P2; […]), phase 2A (P2A; 16-40 min) and phase 2B (P2B; 41-60 min).
Statistical analysis is performed using the Prism™ 4.01 software package (GraphPad, San Diego, Calif., USA). The difference in response levels between treatment groups and control vehicle group is analyzed using an ANOVA followed by Bonferroni's method for post-hoc pair-wise comparisons. A p value <0.05 is considered to be significant.

Structure (SMILES) | block of the ASIC2A/3 steady state current [1] | inhibition of the ASIC 2a/3 current [2] | pain intensity as evaluated by the licking behavior [3]
[Gd+3] [gadolinium (Gd^3+)] | completely block |  | 
O=C(O)c1ccc(Nc2nc(-c3ccc(Cl)cc3)nc3ccccc23)cc1 [Compound 111] |  | specific inhibition | dose-dependent reduction
